These results are taken from ChEMBL document CHEMBL4152341, “Small Molecules Simultaneously Inhibiting p53-Murine Double Minute 2 (MDM2) Interaction and Histone Deacetylases (HDACs): Discovery of Novel Multitargeting Antitumor Agents” (J Med Chem, 2018).

The term IC50 denotes the concentration that inhibits the measured activity by half. One may read the Vdss as a proportionality between amount in the body and measured concentration, not a real space. Read a high Vdss as extensive tissue distribution. In general, Cmax refers to the highest concentration seen after dosing. For orientation: AUC means the area under the concentration-time curve, a measure of exposure. Higher therefore signals more exposure. For orientation: Tmax means the time at which the peak concentration occurs. For orientation: Ki means a dissociation constant, usually derived from enzyme kinetics or from competition with a known ligand. Read a low Ki as a stronger hold on the target. Broadly, the clearance is the volume of plasma or blood freed of the substance per unit of time. Low readings indicate a low capacity for elimination, high ones a high capacity for elimination.

Activity calls are given as the source filed them. The rule behind the calls is not given here.

Series [1] relates to HCT-116. The experiment in a line: Antiproliferative activity against human HCT116 cells after 72 hrs by CCK8 assay. The series is classed as functional, cell-based. The note with it: HCT-116, 72 h. (In general: Formazan colour is commonly taken as a measure of viable cells.)
The subject of series [2] is Mus musculus. The series is described as follows: Toxicity in human A549 cells xenografted in BALB/C nude mouse assessed as body weight loss at 100 to 150 mg/kg, po administered once daily for 21 days starting day 11 after tumor cells implantation. The following applies: in vivo, 504 h. It counts as organism-based. (Xenograft models place foreign cells or tissue in a host animal.)

Series [3] relates to Rattus norvegicus. The series is described as follows: Volume of distribution at steady state in Sprague-Dawley rat at 2 mg/kg, iv administered as bolus dose by LC-MS/MS analysis. It counts as ADME, organism-based. The following applies: in vivo.
The subject of series [4] is MCF7. The series is described as follows: cells. The note with it: Homo sapiens, MCF7, 72 h.
Description: Antiproliferative activity against human MCF7 cells after 72 hrs by CCK8 assay
The target in series [5] is Histone deacetylase 2 (Homo sapiens, UniProt Q92769). The experiment in a line: Inhibition of HDAC2 (unknown origin) after 30 mins by fluorescence assay.
Sequence of Histone deacetylase 2 (Q92769 whole entry): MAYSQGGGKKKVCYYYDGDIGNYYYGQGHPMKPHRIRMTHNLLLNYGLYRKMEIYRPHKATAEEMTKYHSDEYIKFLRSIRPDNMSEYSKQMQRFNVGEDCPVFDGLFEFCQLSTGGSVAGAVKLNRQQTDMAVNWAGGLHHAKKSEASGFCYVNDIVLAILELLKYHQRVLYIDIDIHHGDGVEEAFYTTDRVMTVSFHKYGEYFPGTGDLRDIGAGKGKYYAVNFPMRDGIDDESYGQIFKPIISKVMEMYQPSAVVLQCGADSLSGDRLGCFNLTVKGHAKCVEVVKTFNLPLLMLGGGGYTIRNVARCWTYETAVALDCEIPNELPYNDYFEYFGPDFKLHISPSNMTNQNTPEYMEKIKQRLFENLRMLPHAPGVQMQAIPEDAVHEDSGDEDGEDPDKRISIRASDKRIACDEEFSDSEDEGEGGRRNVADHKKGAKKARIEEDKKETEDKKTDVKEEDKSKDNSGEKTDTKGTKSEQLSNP
A short description of series [6]: Terminal half life in Sprague-Dawley rat at 2 mg/kg, iv administered as bolus dose by LC-MS/MS analysis. The note with it: in vivo, read-out: beta t1/2 (converted). The series is classed as ADME, organism-based.
Series [7] is described as follows: Cmax in Sprague-Dawley rat at 2 mg/kg, iv administered as bolus dose by LC-MS/MS analysis. The series is classed as ADME, organism-based. The following applies: in vivo. Details: dose 2 mg/kg, route intravenous.
For series [8], the system named is Rattus norvegicus. The experiment in a line: AUC (0 to infinity) in Sprague-Dawley rat at 2 mg/kg, iv administered as bolus dose by LC-MS/MS analysis. The note with it: in vivo. Also on record: dose 2 mg/kg, time infinity, route intravenous. It counts as ADME, organism-based.
Series [9] in a line: Tmax in Sprague-Dawley rat at 20 mg/kg, po administered via gavage by LC-MS/MS analysis. It counts as ADME, organism-based. The note with it: in vivo.
In series [10] the target is T1, Histone deacetylase 8 (Homo sapiens, UniProt Q9BY41).
T1 sequence (Q9BY41 whole entry): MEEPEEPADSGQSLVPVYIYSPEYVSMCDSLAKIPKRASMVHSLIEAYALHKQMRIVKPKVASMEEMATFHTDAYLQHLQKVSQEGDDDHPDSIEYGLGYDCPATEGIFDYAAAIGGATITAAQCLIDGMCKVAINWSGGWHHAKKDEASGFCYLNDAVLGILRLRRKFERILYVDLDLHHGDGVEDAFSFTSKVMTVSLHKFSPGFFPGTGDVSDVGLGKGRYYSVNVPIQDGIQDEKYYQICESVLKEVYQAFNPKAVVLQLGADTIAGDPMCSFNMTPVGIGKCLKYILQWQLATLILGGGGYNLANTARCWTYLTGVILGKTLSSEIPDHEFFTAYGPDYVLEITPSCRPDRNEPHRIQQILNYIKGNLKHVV
The experiment in a line: Inhibition of HDAC8 (unknown origin) after 30 mins by fluorescence assay.

In series [11] the test system is A549. The series is described as follows: Antitumor activity against human A549 cells xenografted in BALB/C nude mouse assessed as inhibition of tumor growth at 150 mg/kg, po administered once daily for 21 days starting day 11 after tumor cells implantation. The following applies: read-out: TGI. The series is classed as functional.
Series [12] deals with Histone deacetylase 3 (Homo sapiens, UniProt O15379). The experiment in a line: Inhibition of HDAC3 (unknown origin) after 30 mins by fluorescence assay.
Sequence of Histone deacetylase 3 (O15379 whole entry): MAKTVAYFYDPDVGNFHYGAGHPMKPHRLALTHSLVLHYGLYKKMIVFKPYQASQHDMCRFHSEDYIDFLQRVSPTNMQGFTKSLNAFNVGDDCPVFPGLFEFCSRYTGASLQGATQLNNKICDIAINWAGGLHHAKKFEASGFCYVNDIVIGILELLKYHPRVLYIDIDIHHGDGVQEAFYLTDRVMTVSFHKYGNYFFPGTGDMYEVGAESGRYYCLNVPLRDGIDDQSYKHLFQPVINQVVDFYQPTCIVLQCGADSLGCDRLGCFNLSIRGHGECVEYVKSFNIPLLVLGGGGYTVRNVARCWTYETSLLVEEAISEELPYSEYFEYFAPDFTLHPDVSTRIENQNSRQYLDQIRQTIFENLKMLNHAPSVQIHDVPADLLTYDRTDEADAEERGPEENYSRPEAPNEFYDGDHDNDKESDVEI
Series [13] deals with A549. The series is described as follows: cells. The following applies: Homo sapiens, A549, 48 h, read-out: Activity.
The subject of series [14] is A549. The experiment in a line: Antitumor activity against human A549 cells xenografted in BALB/C nude mouse assessed as inhibition of tumor growth administered orally once daily for 21 days starting day 11 after tumor cells implantation. It counts as functional, cell-based.
Series [15] can be described thus: Terminal half life in Sprague-Dawley rat at 20 mg/kg, po administered via gavage by LC-MS/MS analysis. It counts as ADME, organism-based. The following applies: in vivo, read-out: beta t1/2 (converted).
Series [16] concerns the target T2, Protein deacetylase HDAC6 (Homo sapiens, UniProt Q9UBN7).
T2 sequence (Q9UBN7 whole entry): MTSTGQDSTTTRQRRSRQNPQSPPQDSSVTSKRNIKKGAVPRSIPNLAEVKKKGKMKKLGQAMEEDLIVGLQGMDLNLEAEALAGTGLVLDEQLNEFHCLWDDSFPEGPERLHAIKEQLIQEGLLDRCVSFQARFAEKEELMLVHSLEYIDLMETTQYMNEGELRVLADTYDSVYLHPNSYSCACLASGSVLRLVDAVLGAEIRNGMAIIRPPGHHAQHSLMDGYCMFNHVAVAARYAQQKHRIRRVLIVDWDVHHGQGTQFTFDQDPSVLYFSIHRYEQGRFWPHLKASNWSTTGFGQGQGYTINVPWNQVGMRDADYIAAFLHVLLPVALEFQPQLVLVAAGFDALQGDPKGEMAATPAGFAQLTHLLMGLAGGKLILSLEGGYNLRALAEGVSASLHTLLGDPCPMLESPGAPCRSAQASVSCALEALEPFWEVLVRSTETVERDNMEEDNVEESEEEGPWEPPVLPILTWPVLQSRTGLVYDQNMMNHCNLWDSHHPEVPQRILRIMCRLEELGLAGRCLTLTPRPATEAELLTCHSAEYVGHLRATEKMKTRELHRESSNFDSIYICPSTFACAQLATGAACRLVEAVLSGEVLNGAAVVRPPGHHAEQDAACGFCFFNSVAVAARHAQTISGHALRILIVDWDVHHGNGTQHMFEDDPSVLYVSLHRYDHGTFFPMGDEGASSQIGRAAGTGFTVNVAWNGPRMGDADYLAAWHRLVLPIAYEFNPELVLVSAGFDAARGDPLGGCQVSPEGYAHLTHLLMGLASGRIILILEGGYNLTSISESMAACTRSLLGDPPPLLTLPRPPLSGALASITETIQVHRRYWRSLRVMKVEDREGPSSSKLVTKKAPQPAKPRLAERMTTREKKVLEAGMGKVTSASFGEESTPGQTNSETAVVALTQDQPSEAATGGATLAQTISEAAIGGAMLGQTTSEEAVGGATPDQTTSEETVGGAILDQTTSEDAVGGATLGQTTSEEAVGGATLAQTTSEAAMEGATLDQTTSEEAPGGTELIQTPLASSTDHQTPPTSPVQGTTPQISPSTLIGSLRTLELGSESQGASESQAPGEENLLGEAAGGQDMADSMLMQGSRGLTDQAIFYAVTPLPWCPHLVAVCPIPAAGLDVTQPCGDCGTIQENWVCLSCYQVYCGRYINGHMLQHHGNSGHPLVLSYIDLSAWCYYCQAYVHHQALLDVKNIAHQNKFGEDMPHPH
The series is described as follows: Inhibition of HDAC6 (unknown origin) after 30 mins by fluorescence assay.

The subject of series [17] is Rattus norvegicus. The series is described as follows: Oral bioavailability in Sprague-Dawley rat at 20 mg/kg administered via gavage by LC-MS/MS analysis. The series is classed as ADME, organism-based. The note with it: in vivo.
Series [18] relates to Rattus norvegicus. The experiment in a line: AUC (0 to infinity) in Sprague-Dawley rat at 20 mg/kg, po administered via gavage by LC-MS/MS analysis. The series is classed as ADME, organism-based. Details: dose 20 mg/kg, route oral, time infinity. The following applies: in vivo.
In series [19] the target is E3 ubiquitin-protein ligase Mdm2 (Homo sapiens, UniProt Q00987). The experiment in a line: Inhibition of MDM2 (unknown origin) preincubated for 30 mins by fluorescence polarization assay. For orientation: In fluorescence polarisation assays a small probe gives low polarisation when free and higher when bound to something large.
Sequence of E3 ubiquitin-protein ligase Mdm2 (Q00987 whole entry): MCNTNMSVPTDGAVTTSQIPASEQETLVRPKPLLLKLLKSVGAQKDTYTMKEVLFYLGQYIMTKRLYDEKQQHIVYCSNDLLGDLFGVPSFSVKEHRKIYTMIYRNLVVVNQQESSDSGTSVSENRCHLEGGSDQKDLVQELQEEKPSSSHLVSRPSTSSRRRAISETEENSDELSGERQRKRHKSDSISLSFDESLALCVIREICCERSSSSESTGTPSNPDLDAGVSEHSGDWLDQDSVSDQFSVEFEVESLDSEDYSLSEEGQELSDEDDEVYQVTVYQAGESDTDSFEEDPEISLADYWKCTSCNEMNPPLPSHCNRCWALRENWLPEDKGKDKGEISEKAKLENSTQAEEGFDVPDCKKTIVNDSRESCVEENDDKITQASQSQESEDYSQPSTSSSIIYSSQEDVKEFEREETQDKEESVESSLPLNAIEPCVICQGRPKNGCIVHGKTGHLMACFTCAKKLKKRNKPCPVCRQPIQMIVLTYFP
Series [20] deals with A549. The series is described as follows: cells. The following applies: Homo sapiens, A549, 48 h, read-out: Activity. This is another data set of the same source.
Series [21] relates to Mus musculus. The series is described as follows: Toxicity in human A549 cells xenografted in BALB/C nude mouse assessed as induction of adverse effects at 100 to 150 mg/kg, po administered once daily for 21 days starting day 11 after tumor cells implantation. It counts as organism-based. The note with it: in vivo, 504 h.
Series [22] deals with Rattus norvegicus. The series is described as follows: Clearance in Sprague-Dawley rat at 2 mg/kg, iv administered as bolus dose by LC-MS/MS analysis. It counts as ADME, organism-based. The note with it: in vivo.
A short description of series [23]: Cmax in Sprague-Dawley rat at 20 mg/kg, po administered via gavage by LC-MS/MS analysis. The series is classed as ADME, organism-based. Details: dose 20 mg/kg, route oral. The note with it: in vivo.
Series [24] deals with A549. The experiment in a line: animal or person. The series is classed as functional, Homo sapiens. The following applies: Mus musculus, A549, po, read-out: TGI.
Series [25] has as its system NCI-H1299. The series is described as follows: Antiproliferative activity against human NCI-H1299 cells after 72 hrs by CCK8 assay. It counts as functional, cell-based. The note with it: NCI-H1299, 72 h.
Series [26] is described as follows: Tmax in Sprague-Dawley rat at 2 mg/kg, iv administered as bolus dose by LC-MS/MS analysis. The note with it: in vivo. It counts as ADME, organism-based.
In series [27] the target is Histone deacetylase 1 (Homo sapiens, UniProt Q13547). The experiment in a line: Inhibition of human recombinant full length HDAC1 using fluorogenic substrate 3 after 30 mins by fluorescence assay.
Sequence of Histone deacetylase 1 (Q13547 whole entry): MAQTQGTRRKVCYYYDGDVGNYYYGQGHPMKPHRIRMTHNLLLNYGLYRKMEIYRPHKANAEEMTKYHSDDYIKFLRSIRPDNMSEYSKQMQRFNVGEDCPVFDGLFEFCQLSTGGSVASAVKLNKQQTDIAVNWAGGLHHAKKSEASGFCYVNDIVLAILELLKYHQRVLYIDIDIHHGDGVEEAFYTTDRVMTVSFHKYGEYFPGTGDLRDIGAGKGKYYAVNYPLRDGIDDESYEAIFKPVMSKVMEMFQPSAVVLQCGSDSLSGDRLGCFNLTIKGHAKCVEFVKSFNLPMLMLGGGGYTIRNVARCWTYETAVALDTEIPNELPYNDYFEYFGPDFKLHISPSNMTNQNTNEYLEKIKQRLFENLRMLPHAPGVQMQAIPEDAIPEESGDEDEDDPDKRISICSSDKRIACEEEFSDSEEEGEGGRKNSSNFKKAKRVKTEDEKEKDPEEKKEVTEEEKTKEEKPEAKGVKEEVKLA
Series [28] relates to A549. The experiment in a line: Antiproliferative activity against human A549 cells after 72 hrs by CCK8 assay. It counts as functional, cell-based. The following applies: A549, 72 h.
For series [29], the target named is T3, Tumour suppressor p53/oncoprotein Mdm2 (Homo sapiens) (UniProt P04637+Q00987). The experiment in a line: Inhibition of MDM2/P53 interaction in human A549 cells assessed as increase in p53 expression at 10 uM after 12 hrs by Western blot analysis. The series is classed as cell-based.
T3 sequence (P04637 whole entry, looked up): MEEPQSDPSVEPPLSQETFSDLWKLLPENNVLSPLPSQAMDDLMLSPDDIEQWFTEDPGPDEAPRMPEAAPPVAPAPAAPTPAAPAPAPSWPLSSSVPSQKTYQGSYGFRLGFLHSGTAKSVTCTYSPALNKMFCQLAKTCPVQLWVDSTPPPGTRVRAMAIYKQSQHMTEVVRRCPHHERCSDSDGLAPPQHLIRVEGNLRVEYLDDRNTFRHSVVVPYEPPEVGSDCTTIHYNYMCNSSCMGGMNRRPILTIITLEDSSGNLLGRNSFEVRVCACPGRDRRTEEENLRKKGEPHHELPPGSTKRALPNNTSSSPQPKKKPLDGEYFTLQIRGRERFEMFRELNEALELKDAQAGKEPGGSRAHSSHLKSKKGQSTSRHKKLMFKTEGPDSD
T3 sequence (Q00987 whole entry, looked up): as the sequence (Q00987 whole entry) above
Series [30] concerns the target T3, Tumour suppressor p53/oncoprotein Mdm2 (Homo sapiens). The experiment in a line: Inhibition of MDM2/P53 interaction in human A549 cells assessed as increase in p53 expression at 5 to 10 uM after 12 hrs by Western blot analysis. The series is classed as cell-based.
Series [31] shares this target. The experiment in a line: Inhibition of MDM2/P53 interaction in human A549 cells assessed as increase in MDM2 expression at 5 to 10 uM after 12 hrs by Western blot analysis. It counts as cell-based.

For `CCOc1cc(C(C)(C)C)ccc1C1=NC(c2ccc(Cl)cc2)C(c2ccc(Cl)cc2)N1C(=O)N1CCN(CCCCCCC(=O)NO)CC1` (centres undefined), the 50% inhibitory concentration (IC50) in [1] amounted to 1.08 µM; in series [4], 4.34 µM; in series [5], 0.42 µM; in [10], 1.22 µM; in series [12], 0.178 µM; in series [16], 0.0175 µM. Moreover, the figures for the concentration for half-maximal inhibition (IC50) in series [25], in series [27] and in [28] were 4.16 µM, 0.82 µM and 0.91 µM, respectively. Moreover, the Activity result in [2] and in series [21] was “Non-Toxic” throughout. In series [3], this compound displayed a Vdss of 4.9 L/kg. Also, the half-life was 1.22 h in series [6] and 5.87 h in series [15]. Further, the figures for the Cmax in [7] and in series [23] were 1470 ng/mL and 93.7 ng/mL, respectively. For the same compound, the AUC worked out at 716.3 ng·h/mL in series [8] and 323.23 ng·h/mL in [18]. Moreover, the time to peak (Tmax) in [9] was determined as 3.33 h; in series [26], 4.98 min. For the same compound, the inhibition in vivo at 150 mg/kg in series [11] stood at 74.5%. Moreover, the viability at 1 µM in [13] stood at 77.2%. In addition, the TGI result in [14] was “Dose-dependent effect”. The compound also had a F in series [17] of 18%. The same compound registered an inhibition constant (Ki) in [19] of 0.11 µM. Moreover, the viability at 5 µM in series [20] was 64.9%. The compound also showed a clearance in series [22] of 46.8 mL/min/kg. Besides, the inhibition in vivo at 100 mg/kg in series [24] is 65.4%.

On to `CCOc1cc(C(C)(C)C)ccc1C1=N[C@H](c2ccc(Cl)cc2)[C@H](c2ccc(Cl)cc2)N1C(=O)N1CCN(CCCCCCC(=O)NO)CC1`, for which the figures for the 50% inhibitory concentration (IC50) in [1], in series [27] and in series [28] were 10 µM, 0.91 µM and 9.02 µM, respectively. Besides, the result in series [29] was Active. The compound further registered a Ki in series [19] of 10.9 µM.

As to `CCOc1cc(C(C)(C)C)ccc1C1=N[C@@H](c2ccc(Cl)cc2)[C@@H](c2ccc(Cl)cc2)N1C(=O)N1CCN(CCCCCCC(=O)NO)CC1`, the IC50 in [1] stood at 1.11 µM; in [27] it was 0.89 µM; in series [28], 0.99 µM. Moreover, the inhibition entry in series [30] and in [31] was “Active” in each case. Besides, affinity in series [19] was put at a Ki of 0.06 µM.
